Columns and labels:
[1] = biological target: T1, recombinant human 17β-HSD1 (Homo sapiens, UniProt P14061); assay: Inhibition of recombinant human 17β-HSD1 (conversion of 3H-estrone to estradiol, HPLC); format: biochemical; conditions: inhibitor 1 μM; 30 nM estrone, 1 mM NADPH, 30 min RT; read-out: 17β-HDS1 Inhibition % at 1 μM
T1 construct: made in house; host or cells: Sd9 (Sf9) insect cells, baculovirus (Bac to Bac Expression System)
T1 sequence (P14061 1-328): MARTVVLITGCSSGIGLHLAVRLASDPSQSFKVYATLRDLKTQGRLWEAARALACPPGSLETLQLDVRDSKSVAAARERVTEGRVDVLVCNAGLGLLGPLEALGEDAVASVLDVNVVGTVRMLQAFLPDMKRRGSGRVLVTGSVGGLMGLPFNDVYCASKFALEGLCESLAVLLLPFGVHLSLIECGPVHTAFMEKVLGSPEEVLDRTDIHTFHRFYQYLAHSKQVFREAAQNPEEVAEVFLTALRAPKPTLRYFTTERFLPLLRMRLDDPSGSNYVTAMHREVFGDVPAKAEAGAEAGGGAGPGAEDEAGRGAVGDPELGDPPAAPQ
Method: 17β-HSD1 production and isolation: Recombinant baculovirus was generated by the “Bac to Bac Expression System” (Invitrogen). Recombinant bacmid was transfected to Sd9 insect cells using “Cellfectin Reagent” (Invitrogen). 60 h later cells were harvested; the microsomal fraction was isolated as described by Puranen, T. J., Poutanen, M. H., Peltoketo, H. E., Vihko, P. T. and Vihko, R. K. (1994) Site-directed mutagenesis of the putative active site of human 17 β-hydroxysteroid dehydrogenase type 1. Biochem. J. 304: 289-293. Aliquots were stored frozen until determination of enzymatic activity.
Assay—Inhibition of recombinant human 17β-HSD1: Protein homogenate (0.1 μg/ml) was incubated in 20 mM KH2PO4 pH 7.4 with 30 nM estrone (including 800 000 cpm/ml of ^3H-estrone) and 1 mM NADPH for 30 min at RT, in the presence of the potential inhibitor at concentrations 1 μM or 0.1 μM. Inhibitor stock solutions were prepared in DMSO. Final concentration of DMSO was adjusted to 1% in all samples. The enzyme reaction was stopped by addition of 10% trichloroacetic acid (final concentration). Samples were centrifuged in a microtiter plate at 4000 rpm for 10 min. Supernatants were applied to reverse phase HPLC on a Waters Symmetry C18 column, equipped with a Waters Sentry Guard column. Isocratic HPLC runs were performed at RT at a flow rate of 1 ml/min in acetonitrile:water 48:52 as running solvent. Radioactivity was monitored in the eluate by a Packard Flow Scintillation Analyzer. Total radioactivity for estrone and estradiol were determined in each sample and percent conversion of estrone to estradiol was calculated according to the following formula:
(§1) Percent inhibition was calculated flowingly: % inhibition=100−% conversion

[2] = biological target: T2, recombinant human 17β-HSD2 (Homo sapiens, UniProt P37059); assay: Inhibition of recombinant human 17β-HSD2 (conversion of 3H-estradiol to estrone, HPLC); format: biochemical; conditions: inhibitor 1 μM; 50 nM estradiol, 1 mM NADH, 30 min RT
T2 construct: made in house; host or cells: Sd9 (Sf9) insect cells, baculovirus (Bac to Bac Expression System)
T2 sequence (P37059 1-387): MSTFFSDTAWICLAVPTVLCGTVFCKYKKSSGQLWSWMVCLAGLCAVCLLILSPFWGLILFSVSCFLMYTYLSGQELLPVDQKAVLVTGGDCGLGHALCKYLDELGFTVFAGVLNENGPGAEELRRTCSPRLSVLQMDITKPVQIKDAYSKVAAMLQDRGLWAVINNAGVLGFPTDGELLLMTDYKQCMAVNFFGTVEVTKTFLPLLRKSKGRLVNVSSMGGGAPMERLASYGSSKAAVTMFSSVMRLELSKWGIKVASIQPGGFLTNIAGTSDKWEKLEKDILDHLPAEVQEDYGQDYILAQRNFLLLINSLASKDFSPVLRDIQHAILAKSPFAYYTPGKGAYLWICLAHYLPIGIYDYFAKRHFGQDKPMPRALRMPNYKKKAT
Method: 17β-HSD2 production and isolation: Similarly to 17β-HSD1 the Recombinant baculovirus was generated by the “Bac to Bac Expression System” (Invitrogen). Recombinant bacmid was transfected to Sd9 insect cells using “Cellfectin Reagent” (Invitrogen). 60 h later cells were harvested and supernatant were fractionated by the following protocol: • cells were dissolved into 40 ml of A-buffer (40 mM TRIS, pH8.0, 20% glycerol, 20 μM NAD, 0.4 mM PMSF, 150 mM NaCl, 0.5% dodecyl-β-maltoside+protease inhibitor cocktail) • cells were sonicated • lysate was incubated on ice for 15 min • lysate was centrifuged 5000 rpm 15 min, +4° C. • centrifugation of the supernatant 180 000 g 30 min, +4° C. • pellet was dissolved into 8 ml of A-buffer • not resuspended material was removed by centrifugation 5000 rpm 15 min, +4° C. • the clear supernatant was divided into 100 μl aliquots and were stored frozen until determination of enzymatic activity.
The amount of 17β-HSD2 was analysed by immunoblotting and total protein concentration of each extract batch was determined.
Assay—Inhibition of recombinant human 17β-HSD2: Protein homogenate (4 μg/ml) was incubated in 20 mM KH2PO4 pH 8.5 with 50 nM estradiol (including 800 000 cpm/ml of ^3H-estradiol) and 1 mM […] for 30 min at RT, in the presence of the potential inhibitor at concentrations 1 μM or 0.1 μM. Inhibitor stock solutions were prepared in DMSO. Final concentration of DMSO was adjusted to 1% in all samples. The enzyme reaction was stopped by addition of 10% trichloroacetic acid (final concentration). Samples were centrifuged in a microtiter plate at 4000 rpm for 10 min. Supernatants were applied to reverse phase HPLC on a Waters Symmetry C18 column, equipped with a Waters Sentry Guard column. Isocratic HPLC runs were performed at RT at a flow rate ofl ml/min in acetonitrile:water 48:52 as running solvent. Radioactivity was monitored in the eluate by a Packard Flow Scintillation Analyzer. Total radioactivity for estrone and estradiol were determined in each sample and percent conversion of estradiol to estrone was calculated according to the following formula:
as §1

| Structure (SMILES) | inhibition at 1 µM [1] [%] | inhibition at 1 µM [2] [%] |
| --- | --- | --- |
| Cc1cnc(NC(=O)CC[C@@H]2C/C(=N\O)[C@@]3(C)CCC4c5ccc(O)cc5CCC4C23)s1 (stereo partly drawn) [VIV-22, 3-{(13S,15R)-3-Hydroxy-17-[(E)-hydroxyimino]-13-methyl-7,8,9,11,12,13,14,15,16,17-decahydro-6H-cyclopenta[a]phenanthren-15-yl}-N-(5-methylthiazol-2-yl)propanamide] | 81 | 4 |
| CO/N=C1\C[C@@H](CCC(=O)Nc2ncc(C)s2)C2C3CCc4c(ccc(O)c4I)C3CC[C@]12C (stereo partly drawn) [VIV-7, 3-{(13S,15R)-3-Hydroxy-4-iodo-17-[(E)-methoxyimino]-13-methyl-7,8,9,11,12,13,14,15,16,17-decahydro-6H-cyclopenta[a]phenanthren-15-yl}-N-(5-methylthiazol-2-yl)propanamide] | 81 | 0 |
| CO/N=C1\C[C@@H](CCC(=O)Nc2ncc(C)s2)C2C3CCc4cc(O)c([N+](=O)[O-])cc4C3CC[C@]12C (stereo partly drawn) [VIV-2, 3-{(13S,15R)-3-Hydroxy-17-[(E)-methoxyimino]-13-methyl-2-nitro-7,8,9,11,12,13,14,15,16,17-decahydro-6H-cyclopenta[a]phenanthren-15-yl}-N-(5-methylthiazol-2-yl)propanamide] | 64 | 3 |
| Cc1cnc(NC(=O)CC[C@@H]2C/C(=N\O)[C@@]3(C)CCC4c5cc(F)c(O)cc5CCC4C23)s1 (stereo partly drawn) [VIV-31, 3-{(13S,15R)-2-Fluoro-3-hydroxy-17-[(E)-hydroxyimino]-13-methyl-7,8,9,11,12,13,14,15,16,17-decahydro-6H-cyclopenta[a]phenanthren-15-yl}-N-(5-methylthiazol-2-yl)propanamide] | 97 | 14 |
| CO/N=C1\C[C@@H](CCC(=O)Nc2ncc(C)s2)C2C3CCc4cc(O)c(I)cc4C3CC[C@]12C (stereo partly drawn) [VIV-6, 3-{(13S,15R)-3-Hydroxy-2-iodo-17-[(E)-methoxyimino]-13-methyl-7,8,9,11,12,13,14,15,16,17-decahydro-6H-cyclopenta[a]phenanthren-15-yl}-N-(5-methylthiazol-2-yl)propanamide] | 90 | 0 |
| CO/N=C1\C[C@@H](CCC(=O)Nc2ncc(C)s2)C2C3CCc4c(cc(Br)c(O)c4F)C3CC[C@]12C (stereo partly drawn) [VIV-17, 3-{(13S,15R)-2-Bromo-4-fluoro-3-hydroxy-17-[(E)-methoxyimino]-13-methyl-7,8,9,11,12,13,14,15,16,17-decahydro-6H-cyclopenta[a]phenanthren-15-yl}-N-(5-methylthiazol-2-yl)propanamide] | 83 | 2 |
| Cc1cnc(NC(=O)CC[C@@H]2C/C(=N\O)[C@@]3(C)CCC4c5ccc(O)c(Cl)c5CCC4C23)s1 (stereo partly drawn) [VIV-29, 3-{(13S,15R)-4-Chloro-3-hydroxy-17-[(E)-hydroxyimino]-13-methyl-7,8,9,11,12,13,14,15,16,17-decahydro-6H-cyclopenta[a]phenanthren-15-yl}-N-(5-methylthiazol-2-yl)propanamide] | 98 | 21 |
| Cc1cnc(NC(=O)CC[C@@H]2C/C(=N\O)[C@@]3(C)CCC4c5ccc(O)c(Br)c5CCC4C23)s1 (stereo partly drawn) [VIV-26, 3-{(13S,15R)-4-Bromo-3-hydroxy-17-[(E)-hydroxyimino]-13-methyl-7,8,9,11,12,13,14,15,16,17-decahydro-6H-cyclopenta[a]phenanthren-15-yl}-N-(5-methylthiazol-2-yl)propanamide] | 89 | 15 |
| Cc1cnc(NC(=O)CC[C@@H]2C/C(=N\O)[C@@]3(C)CCC4c5ccc(O)c([N+](=O)[O-])c5CCC4C23)s1 (stereo partly drawn) [VIV-24, 3-{(13S,15R)-3-Hydroxy-4-nitro-17-[(E)-hydroxyimino]-13-methyl-7,8,9,11,12,13,14,15,16,17-decahydro-6H-cyclopenta[a]phenanthren-15-yl}-N-(5-methylthiazol-2-yl)propanamide] | 96 | 33 |
| CO/N=C1\C[C@@H](CCC(=O)Nc2ncc(C)s2)C2C3CCc4c(cc(Br)c(O)c4Br)C3CC[C@]12C (stereo partly drawn) [VIV-11, 3-{(13S,15R)-2,4-Dibromo-3-hydroxy-17-[(E)-methoxyimino]-13-methyl-7,8,9,11,12,13,14,15,16,17-decahydro-6H-cyclopenta[a]phenanthren-15-yl}-N-(5-methylthiazol-2-yl)propanamide] | 78 | 3 |
| Cc1cnc(NC(=O)CC[C@@H]2C/C(=N\O)[C@@]3(C)CCC4c5cc(Br)c(O)c(Br)c5CCC4C23)s1 (stereo partly drawn) [VIV-27, 3-{(13S,15R)-2,4-Dibromo-3-hydroxy-17-[(E)-hydroxyimino]-13-methyl-7,8,9,11,12,13,14,15,16,17-decahydro-6H-cyclopenta[a]phenanthren-15-yl}-N-(5-methylthiazol-2-yl)propanamide] | 98 | 28 |
| CO/N=C1\C[C@@H](CCC(=O)Nc2ncc(C)s2)C2C3CCc4c(cc(I)c(O)c4I)C3CC[C@]12C (stereo partly drawn) [VIV-8, 3-{(13S,15R)-3-Hydroxy-2,4-diiodo-17-[(E)-methoxyimino]-13-methyl-7,8,9,11,12,13,14,15,16,17-decahydro-6H-cyclopenta[a]phenanthren-15-yl}-N-(5-methylthiazol-2-yl)propanamide] | 61 | 2 |
| Cc1cnc(NC(=O)CC[C@@H]2C/C(=N\O)[C@@]3(C)CCC4c5cc(Cl)c(O)cc5CCC4C23)s1 (stereo partly drawn) [VIV-28, 3-{(13S,15R)-2-Chloro-3-hydroxy-17-[(E)-hydroxyimino]-13-methyl-7,8,9,11,12,13,14,15,16,17-decahydro-6H-cyclopenta[a]phenanthren-15-yl}-N-(5-methylthiazol-2-yl)propanamide] | 98 | 21 |
| Cc1cnc(NC(=O)CC[C@@H]2C/C(=N\O)[C@@]3(C)CCC4c5cc([N+](=O)[O-])c(O)cc5CCC4C23)s1 (stereo partly drawn) [VIV-23, 3-{(13S,15R)-3-Hydroxy-2-nitro-17-[(E)-hydroxyimino]-13-methyl-7,8,9,11,12,13,14,15,16,17-decahydro-6H-cyclopenta[a]phenanthren-15-yl}-N-(5-methylthiazol-2-yl)propanamide] | 95 | 6 |
